Data from US6342217B1, “Radiation enhanced gene therapy for tumors expressing a gene for a viral pyrimidine kinase in the presence of a 5′-halogenated pyrimidine” (Human Gene Therapy Research Institute, priority 1995, dated 2002).

Tests used:
[1] = molecular target: mammalian deoxycytidine kinase (Homo sapiens, UniProt P27707); conditions: with respect to mammalian deoxycytidine kinase; cited from earlier work
[2] = tested on: mixture of 50% A375 NV and 50% A375 HS-tk cells; test: clonogenic assay of bystander effect, mixed cells at high density; type: cell-based, human; conditions: 10 μg/ml, 30 Gy
Method: Without wishing to be bound by any theory it is hypothesized that HSV-tk transduced tumor cells are able to sensitize non transduced tumor cells in their vicinity through a bystander effect via metabolic cooperation. Specifically, cells that are not transduced with HS-tk gene can also be sensitized to radiation. […] These cells were plated at a density of 3×10^6 cells per 100 cm^2 tissue culture dish the afternoon prior to adding 10 μg/ml BrdC to the media. […] In contrast the experimentally obtained survival for this mixture of cells when plated together at high density was only 6.2%.

[3] = molecular target: T1, Mammalian thymidine kinase (Homo sapiens, UniProt P04183); conditions: cited from earlier work
T1 sequence (P04183 1-234): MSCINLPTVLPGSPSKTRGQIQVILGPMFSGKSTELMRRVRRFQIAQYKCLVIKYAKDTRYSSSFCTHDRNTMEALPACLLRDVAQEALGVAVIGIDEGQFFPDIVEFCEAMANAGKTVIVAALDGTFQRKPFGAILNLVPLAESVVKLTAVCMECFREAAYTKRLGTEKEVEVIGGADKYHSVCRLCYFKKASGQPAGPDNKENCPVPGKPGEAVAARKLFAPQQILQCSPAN

[4] = tested on: A375TK (transduced with LNStk vector) melanoma cells; test: in vitro clonogenic assay of radiosensitivity, HS-tk transduced cells; type: cell-based, human; conditions: for survival (figure legend): cells transformed with the STK vector, drug and radiation
Description: (§1) For this example, a vector, termed LNSTK was kindly provided by F. Moolten which contained the HS-tk gene driven by the SV40 early promoter. Other transformation vectors containing the HS-tk retroviral vector such as the LTKOSN.2 vector by the Human Gene Therapy Research Institute (Des Moines, Iowa) are commercially available. Another such vector is the GITkSvNa vector by Genetic Therapy Inc., Gaithersburg, Md. A human A375 melanoma cell line was used because of its ease of growth and rapid colony formation in a clonogenic assay. The survival of A375NV (no vector) and A375TK (transduced with LNStk vector) after 30 GY of gamma-radiation with 0,1, or 10 µg/ml IdC is shown in FIG. 2.
(§2) […] cells were plated in a 100 cm^2 tissue culture dish in free media. The next day drug was added in the appropriate concentration. 48 hours later the cells were irradiated with 30 GY from a 250 KV X-ray machine as a single dose. The cells were then trypsinized and replated at between 2.5×10^2 and 1×10^6 cells per plate in triplicate for each data point. After twelve days the cells were fixed, stained and macroscopic colonies containing […] were counted. Measurements in the graph were corrected for plating efficiency. […] Irradiated A375 NV preincubated with 0,1 or 10 μg/ml of IdC had 18.6, 19.3 and 18.3 percent survival respectively. Irradiated A375 tk cells preincubated with 0,1, or 10 μg/ml of IdC had 15.7, 9.9 and 4.4 percent survival respectively.
(§3) In FIG. 3 another experiment is shown, design similar to Example 1. This experiment compared radio sensitivity of A375 NV and A375 tk cells after preincubation with 10 μg/ml of BrdC for 48 hours before X-ray exposure. […] Survival percentages for cells incubated with 10 μg of BrdC and then irradiated with 30 Gy were divided by the survival fraction of cells incubated with 10 μg/ml of BrdC and then mock irradiated.

[5] = tested on: A375NV (no vector) melanoma cells; test: in vitro clonogenic assay of radiosensitivity, non-transduced cells; type: cell-based, human
Description: as §1, §2, §3

[6] = molecular target: Herpes pyrimidine nucleoside kinase (HSV-tk) (Human herpesvirus 1, UniProt P0DTH5); conditions: with respect to Herpes pyrimidine nucleoside kinase / HSV-tk; cited from earlier work
Chain of Herpes pyrimidine nucleoside kinase (HSV-tk) (P0DTH5 whole entry): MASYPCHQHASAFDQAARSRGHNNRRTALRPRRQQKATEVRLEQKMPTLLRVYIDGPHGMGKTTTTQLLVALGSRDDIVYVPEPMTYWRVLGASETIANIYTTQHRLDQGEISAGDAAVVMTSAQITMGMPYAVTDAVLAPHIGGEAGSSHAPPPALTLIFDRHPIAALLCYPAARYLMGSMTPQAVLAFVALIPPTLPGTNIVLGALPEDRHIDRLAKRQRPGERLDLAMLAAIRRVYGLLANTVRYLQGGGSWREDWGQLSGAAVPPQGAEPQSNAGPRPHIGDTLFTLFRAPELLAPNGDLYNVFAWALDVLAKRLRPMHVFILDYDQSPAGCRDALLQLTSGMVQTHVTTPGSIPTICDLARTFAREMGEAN

[7] = tested on: mammalian cells; conditions: cited from earlier work
[8] = irradiated (30 Gy) A375 tk preincubated with 10 μg/ml, before adjustment
[9] = non irradiated A375 tk, 10 μg/ml drug 48 h, compared to non-irradiated control cells not preincubated with drug

Chain of mammalian deoxycytidine kinase (P27707 whole entry): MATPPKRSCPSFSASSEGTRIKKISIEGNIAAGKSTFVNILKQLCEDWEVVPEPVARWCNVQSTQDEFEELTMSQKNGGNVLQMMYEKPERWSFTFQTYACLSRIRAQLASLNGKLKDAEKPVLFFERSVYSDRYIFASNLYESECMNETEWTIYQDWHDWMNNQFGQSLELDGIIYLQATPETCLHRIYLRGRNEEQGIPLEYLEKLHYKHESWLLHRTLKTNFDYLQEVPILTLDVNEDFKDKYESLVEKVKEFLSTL

Compound | Km [1] | phosphorylation by mammalian thymidine kinase [3] | survival (figure legend) [4] | percent survival [4, 8] | survival [4, 9] | Km [6] | other results
Nc1nc(=O)n([C@H]2C[C@H](O)[C@@H](CO)O2)cc1Br [BrdC, 5-bromo-2′-deoxycytidine] | 2100 µM | cannot phosphorylate | less than 10% | 2.3% | 33% | 2 µM | experimentally obtained survival of the mixture ([2]; 50% A375 tk and 50% A375 NV plated together at high density): 6.2%; expected survival of the mixture (half of tk plus half of NV survival) ([2]; 50% A375 tk and 50% A375 NV, theoretical): 8.3%; survival ([4]; 100% A375 tk plated at 3×10^6 cells per dish (about 90% confluent), 10 μg/ml, 30 Gy): 3.5%; adjusted survival (irradiated survival divided by nonirradiated surviving fraction) ([4]; A375 tk, 10 μg/ml, 30 Gy): 6.9%; survival ([5]; 100% A375 NV plated at 3×10^6 cells per dish (about 90% confluent), 10 μg/ml, 30 Gy): 13.1%; adjusted survival (irradiated survival divided by nonirradiated surviving fraction) ([5]; A375 NV, 10 μg/ml, 30 Gy): 9%
Nc1ccn([C@H]2C[C@H](O)[C@@H](CO)O2)c(=O)n1 [Deoxycytidine, deoxycytidine, reference compound] |  |  |  |  |  | 500 µM | 
Nc1nc(=O)n([C@H]2C[C@H](O)[C@@H](CO)O2)cc1I [IdC, 5-iodo-2′-deoxycytidine] | 4000 µM | cannot phosphorylate | less than 10% | 4.4% | 54% | 2 µM | percent survival ([4]; irradiated (30 Gy) A375 tk preincubated with 1 μg/ml): 9.9%; radiation potentiation in the absence of the HS-tk gene ([5]; IdC 1 or 10 μg/ml, 30 Gy): no degree radiation potentiation was seen; percent survival ([5]; irradiated (30 Gy) A375 NV preincubated with 1 μg/ml): 19.3%; percent survival ([5]; irradiated (30 Gy) A375 NV preincubated with 10 μg/ml): 18.3%; survival ([5]; non irradiated A375 NV, 10 μg/ml drug 48 h, compared to non-irradiated control cells not preincubated with drug): 73%; survival (figure legend) ([5]; nontransformed cells treated with radiation): approximately 50%
O=C1NC(O)CCN1[C@@H]1O[C@H](CO)[C@@H](O)[C@H]1O (some centres unmarked) [Tetrahydrouridine, tetrahydrouridine] |  |  |  |  |  |  | safety in mammalian cells [7]: safe and non toxic
